According to the supplement of paper PMC10307832:

Assays:
Assay in all cases: relative viability (nuclei count vs DMSO), 5 days (fraction); higher = more cells survive
[1] = compound: O=C(NC1CCNCC1)c1n[nH]cc1NC(=O)c1c(Cl)cccc1Cl [AT-7519] + O=C(CCCCCCC(=O)Nc1ccccc1)NO [Vorinostat] (partner 1 µM)
How it was run: (§1)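 Medians of duplicate plates are given as relative viability. That measure is the nuclei count in treated wells divided by the count in vehicle wells. Counts were taken on 4× images of lung cancer cell lines in 1536-well plates, 5 days after pin-tool dosing the day after seeding with one drug alone or a fixed anchor-drug dose plus five library-drug doses (not always all listed) in √10 steps.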

[2] = compound: C1=CC2=C(C=C(C(=C2N=C1)O)N=NC3=CC4=C(C=C3)C=C(C=C4)S(=O)(=O)O)S(=O)(=O)O + O=C(c1cc(Cc2n[nH]c(=O)c3ccccc23)ccc1F)N1CCN(C(=O)C2CC2)CC1 [Olaparib] (partner 8 µM)
How it was run: as §1

[3] = compound: C1=CC2=C(C=C(C(=C2N=C1)O)N=NC3=CC4=C(C=C3)C=C(C=C4)S(=O)(=O)O)S(=O)(=O)O + Nc1nc2[nH]cc(CCc3ccc(C(=O)N[C@@H](CCC(=O)O)C(=O)O)cc3)c2c(=O)[nH]1 [Pemetrexed] (partner 0.2 µM)
How it was run: as §1

[4] = compound: O=C(NC1CCNCC1)c1n[nH]cc1NC(=O)c1c(Cl)cccc1Cl [AT-7519] + CS(=O)(=O)N1CCN(Cc2cc3nc(-c4cccc5[nH]ncc45)nc(N4CCOCC4)c3s2)CC1 [Pictilisib] (partner 1 µM)
How it was run: as §1

Cell Line	relative viability ([1]; first compound 0.01 µM)	relative viability ([1]; first compound 0.03162 µM)	relative viability ([1]; first compound 0.3162 µM)	relative viability ([1]; first compound 1 µM)	relative viability ([2]; first compound 0.08 µM)	relative viability ([2]; first compound 0.253 µM)	relative viability ([2]; first compound 0.8 µM)	relative viability ([2]; first compound 2.53 µM)	relative viability ([2]; first compound 8 µM)	relative viability ([3]; first compound 0.08 µM)	relative viability ([3]; first compound 0.253 µM)	relative viability ([3]; first compound 0.8 µM)	relative viability ([3]; first compound 2.53 µM)	relative viability ([3]; first compound 8 µM)	relative viability ([4]; first compound 0.01 µM)	relative viability ([4]; first compound 0.03162 µM)	relative viability ([4]; first compound 0.3162 µM)	relative viability ([4]; first compound 1 µM)
NCI-H661	0.792	0.829	0.867	0.261	0.744	0.744	0.831	0.761	0.72	0.891	0.925	0.893	0.945	0.901	0.398	0.386	0.399	0.289
NCI-H838	0.758	0.653	0.62	0.153	0.781	0.739	0.743	0.777	0.77	0.264	0.251	0.235	0.234	0.246	0.567	0.427	0.145	0.103
NCI-H1355	0.65	0.624	0.661	0.598	0.736	0.717	0.748	0.728	0.711	1.13	1.05	1.02	1.1	0.872	0.462	0.388	0.475	0.35
NCI-H1395	0.82	0.655	0.57	0.565	0.498	0.47	0.489	0.469	0.402	0.814	0.816	0.68	0.763	0.782	0.662	0.523	0.51	0.471
NCI-H1437	0.815	0.842	0.929	0.353	0.617	0.611	0.655	0.638	0.613	0.299	0.326	0.334	0.265	0.308	0.471	0.392	0.29	0.133
NCI-H1650	0.534	0.681	0.489	0.23	0.825	0.677	0.781	0.812	0.894	0.433	0.346	0.368	0.389	0.4	0.701	0.548	0.295	0.177
NCI-H1651	0.606	0.505	0.56	0.643	0.187	0.176	0.196	0.208	0.181	0.678	0.534	0.601	0.609	0.54	0.59	0.478	0.397	0.41
